Test results: ChEMBL document CHEMBL1201862, “PubChem BioAssay data set” (2004)
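48-hour exposure; five concentrations; linearly interpolated endpoints. GI50 is the concentration that inhibits growth by half.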 Active and inactive are the calls of the source. Cut-off read from the data, not from the text of the source: active = GI50 up to about 1.1 µM and inactive = higher.

Experiments:
Experiment in all cases: NCI tumour cell line growth inhibition, 48 h
Malme-3M = test system: Malme-3M
COLO 205 = test system: COLO 205
Hs-578T = test system: Hs-578T
MDA-MB-435 = test system: MDA-MB-435
SK-OV-3 = test system: SK-OV-3
U-251 = test system: U-251
UACC-62 = test system: UACC-62
SF-268 = test system: SF-268
MOLT-4 = test system: MOLT-4
OVCAR-8 = test system: OVCAR-8
NCI-H522 = test system: NCI-H522
OVCAR-3 = test system: OVCAR-3
NCI-H460 = test system: NCI-H460
SNB-19 = test system: SNB-19
BT-549 = test system: BT-549
SNB-75 = test system: SNB-75
SF-295 = test system: SF-295
A549 = test system: A549
NCI-H226 = test system: NCI-H226

Measured: GI50

ClC(Cl)(Cl)C1=N[C@H]2[C@H](Br)[C@@H]3O[C@@H](c4ccccc4)[C@H](c4ccccc4)O[C@@H]3[C@H]2O1
inactive: Malme-3M 19.2 µM | COLO 205 16.3 µM | Hs-578T 23.8 µM | MDA-MB-435 20.7 µM | SK-OV-3 18.5 µM | U-251 17.1 µM | UACC-62 16.3 µM | SF-268 18.4 µM | MOLT-4 18.2 µM | OVCAR-8 17.6 µM | NCI-H522 10.9 µM | OVCAR-3 16.6 µM | NCI-H460 16 µM | SNB-19 27.4 µM | BT-549 24.9 µM | SNB-75 20.9 µM | SF-295 17.1 µM | A549 21.5 µM | NCI-H226 19.8 µM

CCOC(=O)/C=C(/C(=O)OCC)n1ccc(N)nc1=O
inactive: Malme-3M 44.6 µM | COLO 205 66.1 µM | Hs-578T > 100 µM | MDA-MB-435 > 100 µM | SK-OV-3 > 100 µM | U-251 > 100 µM | UACC-62 > 100 µM | SF-268 > 100 µM | MOLT-4 92 µM | OVCAR-8 > 100 µM | NCI-H522 23.6 µM | OVCAR-3 > 100 µM | NCI-H460 > 100 µM | SNB-19 > 100 µM | BT-549 61.4 µM | SNB-75 95.1 µM | SF-295 > 100 µM | A549 > 100 µM | NCI-H226 > 100 µM

COc1oc(C(=O)NC2CCCCC2)c(-c2ccc(Cl)cc2)c1S(=O)(=O)c1ccccc1
inactive: Malme-3M 11.7 µM | COLO 205 15.5 µM | Hs-578T 16.2 µM | MDA-MB-435 9.86 µM | SK-OV-3 25.6 µM | U-251 2.64 µM | UACC-62 17.1 µM | SF-268 3.46 µM | MOLT-4 6.79 µM | OVCAR-8 6.4 µM | NCI-H522 1.34 µM | OVCAR-3 1.89 µM | NCI-H460 10.5 µM | SNB-19 99.3 µM | BT-549 5.55 µM | SNB-75 20.8 µM | SF-295 23.4 µM | A549 23.7 µM | NCI-H226 52.2 µM

C=CC[C@@]1(C)CCCCCCCCC[C@@](C)(CC=C)C1=O
inactive: Malme-3M 25.7 µM | COLO 205 19.6 µM | Hs-578T 18.9 µM | MDA-MB-435 46.9 µM | SK-OV-3 41.1 µM | U-251 18.9 µM | UACC-62 27.9 µM | SF-268 36.4 µM | MOLT-4 20.4 µM | OVCAR-8 21.5 µM | NCI-H522 35.2 µM | OVCAR-3 19 µM | NCI-H460 24.4 µM | SNB-19 20.5 µM | BT-549 27.4 µM | SNB-75 31.5 µM | SF-295 21.1 µM | A549 40 µM | NCI-H226 23.8 µM

COC(=O)CCC1=CCC2(SC)C(=O)Nc3cccc1c32 (centres undefined)
inactive: Malme-3M > 100 µM | COLO 205 > 100 µM | Hs-578T > 100 µM | MDA-MB-435 > 100 µM | SK-OV-3 > 100 µM | U-251 > 100 µM | UACC-62 > 100 µM | SF-268 > 100 µM | MOLT-4 > 100 µM | OVCAR-8 > 100 µM | NCI-H522 > 100 µM | OVCAR-3 > 100 µM | NCI-H460 > 100 µM | SNB-19 > 100 µM | BT-549 > 100 µM | SNB-75 > 100 µM | SF-295 > 100 µM | A549 > 100 µM | NCI-H226 > 100 µM

C[C@@H](NC(=O)Cn1c(Cl)nc2ccccc21)c1ccccc1
inactive: Malme-3M > 100 µM | COLO 205 > 100 µM | Hs-578T 51.6 µM | MDA-MB-435 > 100 µM | SK-OV-3 > 100 µM | U-251 > 100 µM | UACC-62 > 100 µM | SF-268 > 100 µM | MOLT-4 > 100 µM | OVCAR-8 > 100 µM | NCI-H522 38.2 µM | OVCAR-3 > 100 µM | NCI-H460 > 100 µM | SNB-19 > 100 µM | BT-549 > 100 µM | SNB-75 > 100 µM | SF-295 > 100 µM | A549 > 100 µM | NCI-H226 > 100 µM
